Assays:
rat brain CYP2D [1] = system: rat brain CYP2D
rat brain CYP2D [2] = settings: 20 μg i.c.v. propranolol
[3] = 20 μg i.c.v. propranolol, 30 mg/kg s.c. codeine
[4] = 30 min after 30 mg/kg s.c. codeine

SMILES: CC(C)NCC(O)COc1cccc2ccccc12 (centres unmarked) [propranolol]
- percentage of maximal analgesic effect (%MPE) after codeine, compared to vehicle pretreatment (rat brain CYP2D [1]; 20 μg i.c.v. propranolol 24 h before 30 mg/kg s.c. codeine, at 15, 20, 30 and 40 min): significantly lower
- area under the analgesia-time curve (AUC) 0-30 min after codeine, compared to vehicle pretreatment (rat brain CYP2D [1]; [3]): significantly lower
- area under the analgesia-time curve (AUC) 60-120 min after codeine, compared to vehicle pretreatment (rat brain CYP2D [1]; [3]): Neither inhibitor resulted in lower AUC
- AUC of analgesia after morphine, compared to vehicle pretreatment (rat brain CYP2D [1]; 40 μg i.c.v. propranolol, 5 mg/kg s.c. morphine, all time periods): did not result in significantly different
- %MPE after morphine, compared to vehicle pretreatment (rat brain CYP2D [1]; 40 μg i.c.v. propranolol, 5 mg/kg s.c. morphine, all time points): did not result in significantly different %MPE
- brain morphine concentration, compared to vehicle-pretreated rats (rat brain CYP2D [2]; [4]): significantly lower
- plasma morphine concentration, compared to vehicle-pretreated rats (rat brain CYP2D [2]; [4]): equal
- brain morphine concentrations, propranolol- vs vehicle-pretreated rats (rat brain CYP2D [2]; at both 60 and 90 min after 30 mg/kg s.c. codeine): no significant difference

Source: publication PMC3687523 (Biochemical pharmacology, 2013)
